Data on 10 compounds can be found in ChEMBL document CHEMBL1201862, “PubChem BioAssay data set” (2004).

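Five compound concentrations were applied to cells in 96-well plates for 48 hours; endpoints were derived by simple linear interpolation of the resulting dose-response curve. GI50 is the concentration that inhibits growth by half.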 Active and inactive are the calls of the source. Rule as the data show it: active = GI50 up to about 1.1 µM and inactive = higher.

Some test systems named below: MDA-MB-435; OVCAR-5; HOP-62; NCI/ADR-RES; HCT-15; RXF 393; MDA-MB-231; UACC-257; NCI-H23; CAKI-1; EKVX; OVCAR-3; DU-145; HT-29; HCT-116; SNB-75; LOX IMVI; SW-620; OVCAR-4; UO-31.
Experiment in all cases: NCI anticancer screen, dose series, 48 h

Take `CC(C)c1ccccc1[S+]([O-])c1ccccc1C(C)(C)O` (configuration not stated): the GI50 in the experiment with MDA-MB-435 was 39.6 µM (inactive); with OVCAR-5, 56.2 µM (inactive); in the experiment on HOP-62, 22.5 µM (inactive); in the experiment with NCI/ADR-RES it was 64.6 µM (inactive); with HCT-15 it was 82 µM; in the experiment with RXF 393, > 100 µM (inactive). The GI50 with MDA-MB-231 was 88.9 µM (inactive); in the experiment on UACC-257, > 100 µM (inactive); with NCI-H23 it was > 100 µM (inactive); with CAKI-1 it was > 100 µM (inactive); with EKVX, > 100 µM (inactive); with OVCAR-3 it was > 100 µM (inactive). Further, the GI50 is > 100 µM (inactive) with DU-145; 96.2 µM (inactive) in the experiment with HT-29; > 100 µM (inactive) in the experiment with HCT-116; 32.3 µM (inactive) with SNB-75; 69.5 µM (inactive) in the experiment with LOX IMVI; > 100 µM (inactive) in the experiment with SW-620. Moreover, in the experiment on OVCAR-4, the GI50 is > 100 µM (inactive).

Consider `C1=Cc2ccccc2C1.C=C(C)c1ccccc1.[N-]=[N+]=Nc1ccccc1`, for which the GI50 with MDA-MB-435 is 70.6 µM (inactive); with OVCAR-5 it was > 100 µM (inactive); in the experiment on HOP-62, > 100 µM (inactive); in the experiment with NCI/ADR-RES, > 100 µM (inactive); in the experiment on UO-31, > 100 µM (inactive); in the experiment with HCT-15, > 100 µM. For the same compound, the GI50 is > 100 µM (inactive) in the experiment with RXF 393; > 100 µM (inactive) in the experiment with MDA-MB-231; 41 µM (inactive) in the experiment on UACC-257; > 100 µM (inactive) in the experiment on NCI-H23; > 100 µM (inactive) in the experiment on CAKI-1; 38.5 µM (inactive) with EKVX. Besides, the GI50 with OVCAR-3 is > 100 µM (inactive); with DU-145, > 100 µM (inactive); with HT-29 it was 42.7 µM (inactive); with HCT-116 it was 48.3 µM (inactive); in the experiment with SNB-75, 49 µM (inactive); with LOX IMVI, > 100 µM (inactive). For the same compound, the GI50 with SW-620 is 67.3 µM (inactive); with OVCAR-4, > 100 µM (inactive).

Turning to `COc1ccc(/N=C/N(C)C)c(C)c1`, the GI50 in the experiment with MDA-MB-435 is 6.08 µM (inactive); in the experiment with OVCAR-5, 20.5 µM (inactive); with HOP-62, 18.3 µM (inactive); in the experiment with NCI/ADR-RES it was 44.7 µM (inactive); in the experiment with UO-31, 26.1 µM (inactive); with HCT-15, 35.3 µM. Besides, the GI50 was 10.6 µM (inactive) with RXF 393; 5.83 µM (inactive) in the experiment on MDA-MB-231; 2.42 µM (inactive) in the experiment on UACC-257; 2 µM (inactive) with NCI-H23; 35.6 µM (inactive) with CAKI-1; 10.6 µM (inactive) with EKVX. The GI50 is 2.36 µM (inactive) with OVCAR-3; 4.16 µM (inactive) in the experiment with DU-145; 5.4 µM (inactive) in the experiment on HT-29; 4.15 µM (inactive) in the experiment with HCT-116; 16.7 µM (inactive) in the experiment with SNB-75; 3.15 µM (inactive) in the experiment with LOX IMVI. Further, in the experiment with OVCAR-4, the GI50 was 9.42 µM (inactive).

Take `CSc1c(C#N)c(=O)n(N)c2c1c(C)nn2-c1ccccc1`: the GI50 was 30.9 µM (inactive) with MDA-MB-435; 24.1 µM (inactive) in the experiment on OVCAR-5; 24.3 µM (inactive) in the experiment on NCI/ADR-RES; 18.5 µM (inactive) with UO-31; 22.1 µM in the experiment on HCT-15; 18.7 µM (inactive) in the experiment with RXF 393. Also, the GI50 with MDA-MB-231 is 17.6 µM (inactive); in the experiment with UACC-257, 22 µM (inactive); with NCI-H23 it was 18.9 µM (inactive); in the experiment on CAKI-1, 19.9 µM (inactive); in the experiment on EKVX it was 26.7 µM (inactive); with OVCAR-3 it was 25.1 µM (inactive). Also, the GI50 was 37.2 µM (inactive) in the experiment with DU-145; 24.7 µM (inactive) in the experiment with HT-29; 23.7 µM (inactive) with HCT-116; 28.2 µM (inactive) in the experiment on SNB-75; 20.6 µM (inactive) in the experiment on LOX IMVI; 35.9 µM (inactive) in the experiment with SW-620. In addition, the GI50 in the experiment on OVCAR-4 was 23.6 µM (inactive).

With `CC(C)(CCCCC(C)(C)NCC1COc2ccccc2O1)NCC1COc2ccccc2O1` (configuration not stated), the GI50 is 1.81 µM (inactive) with MDA-MB-435; > 10 µM (inactive) in the experiment on OVCAR-5; > 10 µM (inactive) in the experiment on HOP-62; > 10 µM (inactive) in the experiment on NCI/ADR-RES; 7.98 µM in the experiment with HCT-15; 3.18 µM (inactive) in the experiment with RXF 393. Moreover, the GI50 in the experiment on MDA-MB-231 is 3.54 µM (inactive); in the experiment on UACC-257 it was 2.04 µM (inactive); with NCI-H23, > 10 µM (inactive); in the experiment on CAKI-1, > 10 µM (inactive); in the experiment with EKVX, > 10 µM (inactive); in the experiment on OVCAR-3, > 10 µM (inactive). Further, the GI50 in the experiment on DU-145 is > 10 µM (inactive); in the experiment on HT-29, 2.47 µM (inactive); with HCT-116 it was 7.91 µM (inactive); with SNB-75, 9.38 µM (inactive); with LOX IMVI, 3.33 µM (inactive); in the experiment with SW-620, 9.75 µM (inactive). Besides, in the experiment with OVCAR-4, the GI50 was > 10 µM (inactive).

`O=Cc1ccc2c(c1)CC1(C2)Cc2ccc3c(c2C1)CCC3` (configuration not stated): the GI50 in the experiment with MDA-MB-435 was 2.46 µM (inactive); in the experiment with OVCAR-5, > 44.9 µM (inactive); in the experiment on HOP-62 it was 9.4 µM (inactive); in the experiment with NCI/ADR-RES, 7.19 µM (inactive); in the experiment on UO-31 it was 11.9 µM (inactive); with HCT-15, 8.51 µM. Further, the GI50 is 11.2 µM (inactive) with RXF 393; 3.76 µM (inactive) in the experiment on MDA-MB-231; 16 µM (inactive) in the experiment on UACC-257; 14.6 µM (inactive) in the experiment with NCI-H23; 21.1 µM (inactive) in the experiment with CAKI-1; 24.3 µM (inactive) in the experiment with EKVX. Besides, the GI50 in the experiment on OVCAR-3 was 6.68 µM (inactive); in the experiment with DU-145 it was 22.1 µM (inactive); with HT-29, 19 µM (inactive); in the experiment with HCT-116, 6.82 µM (inactive); with SNB-75 it was 7.24 µM (inactive); with LOX IMVI it was 4.73 µM (inactive). Moreover, the GI50 in the experiment on SW-620 was 3.98 µM (inactive); in the experiment with OVCAR-4, 10.8 µM (inactive).

As for `CCOC(=O)/C=C(\C(=O)OCC)n1cc(C)c(=O)n(Cc2cn(CCCCOC(C)=O)nn2)c1=O`, the GI50 in the experiment on MDA-MB-435 is 9.95 µM (inactive); in the experiment on OVCAR-5 it was 12.4 µM (inactive); with HOP-62 it was 18.4 µM (inactive); in the experiment on NCI/ADR-RES, 19.6 µM (inactive); in the experiment on UO-31, 14.5 µM (inactive); in the experiment on HCT-15, 6.37 µM. Also, the GI50 in the experiment with RXF 393 was 1.48 µM (inactive); with MDA-MB-231, 15.7 µM (inactive); in the experiment with UACC-257, 16.1 µM (inactive); with NCI-H23 it was 14.2 µM (inactive); in the experiment on CAKI-1 it was 3.92 µM (inactive); with EKVX, 9.04 µM (inactive). The GI50 in the experiment with OVCAR-3 is 13.3 µM (inactive); with DU-145, 19.8 µM (inactive); in the experiment with HT-29 it was 8.32 µM (inactive); in the experiment with HCT-116, 11.3 µM (inactive); in the experiment with SNB-75, 15.7 µM (inactive); with LOX IMVI, 6.62 µM (inactive). Further, the GI50 in the experiment with SW-620 is 3.47 µM (inactive); with OVCAR-4 it was 23.2 µM (inactive).

As for `CN(N=O)C(=O)Nc1ccc(C(=O)O)cc1`, the GI50 is > 100 µM (inactive) in the experiment on MDA-MB-435; > 100 µM (inactive) in the experiment on OVCAR-5; > 100 µM (inactive) in the experiment with HOP-62; > 100 µM (inactive) in the experiment on NCI/ADR-RES; > 100 µM (inactive) in the experiment on UO-31; > 100 µM in the experiment with HCT-15. The GI50 in the experiment with RXF 393, in the experiment with MDA-MB-231, in the experiment on UACC-257, with NCI-H23, in the experiment with CAKI-1 and in the experiment on EKVX was > 100 µM (inactive) in each case. In addition, the GI50 in the experiment on OVCAR-3, with DU-145, in the experiment with HT-29, in the experiment with HCT-116, in the experiment on SNB-75 and in the experiment on LOX IMVI was > 100 µM (inactive) in each case. Besides, the GI50 with SW-620 and in the experiment on OVCAR-4 was > 100 µM (inactive) each time.

For `CC1(C#N)CC(C)(C)C(/C=C2/CC(C)(C)C(/C=C3/OC(=N)CC3(C)C)=N2)=N1` (configuration not stated), the GI50 was 21.7 µM (inactive) with MDA-MB-435; 80.4 µM (inactive) with OVCAR-5; 23.8 µM (inactive) with HOP-62; 18.2 µM (inactive) in the experiment on NCI/ADR-RES; 17.9 µM in the experiment on HCT-15; 15.2 µM (inactive) in the experiment on RXF 393. Besides, the GI50 in the experiment on MDA-MB-231 was 33.6 µM (inactive); in the experiment on UACC-257, 18.8 µM (inactive); in the experiment on NCI-H23, 22.8 µM (inactive); with CAKI-1, 40 µM (inactive); with EKVX, 21.7 µM (inactive); in the experiment on OVCAR-3, 20 µM (inactive). For the same compound, the GI50 in the experiment on DU-145 was 33.7 µM (inactive); in the experiment with HT-29 it was 27.2 µM (inactive); with HCT-116, 28.9 µM (inactive); in the experiment with SNB-75 it was 31 µM (inactive); with LOX IMVI, 36.2 µM (inactive); with SW-620, 34.4 µM (inactive). In the experiment on OVCAR-4, the GI50 was 20 µM (inactive).

On to `CC(=O)N(C(=O)CC(=O)N/N=C\c1ccc(Br)c(N(CCC#N)CCC#N)c1)c1ccc(Cl)cc1`, for which the GI50 with MDA-MB-435 was 27.5 µM (inactive); in the experiment with OVCAR-5 it was 11.8 µM (inactive); in the experiment with HOP-62 it was 44.7 µM (inactive); in the experiment with NCI/ADR-RES it was 52.8 µM (inactive); in the experiment with UO-31, 24.8 µM (inactive); in the experiment with HCT-15 it was 14 µM. Besides, the GI50 with RXF 393 was > 100 µM (inactive); in the experiment with MDA-MB-231 it was 10.6 µM (inactive); with NCI-H23, 86.1 µM (inactive); with CAKI-1 it was 44.7 µM (inactive); in the experiment on EKVX it was 60.5 µM (inactive); in the experiment with OVCAR-3, 47.9 µM (inactive). Further, the GI50 is 30.2 µM (inactive) in the experiment with DU-145; 62.4 µM (inactive) in the experiment with HCT-116; 54.2 µM (inactive) in the experiment with SNB-75; 33.9 µM (inactive) in the experiment on LOX IMVI; 93.3 µM (inactive) in the experiment on SW-620.
